Test results taken from patent US20250244419A1, “INFUSION DEVICE FOR THE PREPARATION AND DELIVERY OF MRI PROBES” (The United States of America, as represented by the …, priority 2022, published 2025).

Test: Relaxation dynamics of hyperpolarized [1-13C]pyruvate (build-up time Tb, T1)
Format: physicochemical
Conditions: for corresponding T1 value: same conditions as build-up
Description: In addition, the relaxation dynamics of the [1-^13C]pyruvate were also studied.
In addition, relaxation dynamics at earth field and 1.8 T are about the same as a non-fluorinated SABRE catalyst T1=28.9±1.6 s and 66.5±7 s, respectively.
In addition, relaxation dynamics at earth field and 1.8 T are about the same as a non-fluorinated SABRE catalyst T1=9.0±1.9 s and 16.0±1.4 s, respectively.

[1] = NFBME / deuterated methanol mixture, catalyst of Example 4
[2] = methanol, catalyst of Example 4, DMSO co-ligand

C[13C](=O)C(=O)O [[1-^13C]pyruvate, Sodium [1-^13C]-pyruvate]
T1 at 1.8 T [1]: 16.0 ± 1.4 s | T1 at earth field [1]: 9.0 ± 1.9 s | corresponding T1 value [1]: 11.3 ± 1.3 s | T1 at 1.8 T [2]: 66.5 ± 7 s | T1 at earth field [2]: 28.9 ± 1.6 s | corresponding T1 value [2]: 16.1 ± 0.9 s
